# Experimental data from patent US20240018119A1, “CARBOXAMIDE DERIVATIVE AND PHARMACEUTICAL COMPOSITION COMPRISING SAME AS ACTIVE INGREDIENT FOR PREVENTING OR TREATING MENTAL ILLNESS” (DAEGU-GYEONGBUK MEDICAL INNOVATION FOUNDATION, priority 2020, published 2024).
# Experiments:
# Type in all cases: cell-based
# dopamine transporter = biological target: T1, dopamine transporter (Homo sapiens, UniProt Q01959); assay: Dopamine reuptake inhibition in transporter-transfected HEK-293 cells ([3H]-DA); settings: for Triple reuptake inhibition (Ratio %) DAT: compound 1 μM, 20-30 nM [3H]-DA, relative to control without compound (100%), lower = more inhibition; for IC50: concentration at which Ratio % is 50%, 6 concentrations 1 nM to 1 μM, read-out: Triple reuptake inhibition (IC50, μM) DAT
# T1 construct: expressed in transfected cells; host or cells: HEK-293
# T1 sequence (Q01959 whole entry): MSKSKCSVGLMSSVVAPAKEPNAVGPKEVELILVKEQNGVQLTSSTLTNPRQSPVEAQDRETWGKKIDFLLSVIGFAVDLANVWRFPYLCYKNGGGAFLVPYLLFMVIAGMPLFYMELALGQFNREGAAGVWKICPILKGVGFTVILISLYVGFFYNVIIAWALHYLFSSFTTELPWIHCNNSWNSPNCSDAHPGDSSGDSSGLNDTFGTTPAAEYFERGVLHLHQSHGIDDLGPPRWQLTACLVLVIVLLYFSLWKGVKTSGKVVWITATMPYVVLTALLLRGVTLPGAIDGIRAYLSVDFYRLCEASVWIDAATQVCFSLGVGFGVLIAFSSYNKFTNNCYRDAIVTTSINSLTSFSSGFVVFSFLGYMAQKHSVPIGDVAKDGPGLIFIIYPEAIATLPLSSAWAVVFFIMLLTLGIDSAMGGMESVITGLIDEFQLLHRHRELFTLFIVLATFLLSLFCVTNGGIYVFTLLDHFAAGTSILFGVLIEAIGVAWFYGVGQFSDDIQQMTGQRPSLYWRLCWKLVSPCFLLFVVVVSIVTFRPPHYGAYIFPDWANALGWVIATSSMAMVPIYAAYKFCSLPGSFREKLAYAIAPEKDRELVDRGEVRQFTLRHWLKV
# Description: (§1) To evaluate the reuptake inhibitory effect on dopamine, the dopamine transporter cDNA was transfected using the HEK-293 cell line, and then sub-seeded in a 24 well plate the next day. After removing the medium, each compound of the Examples or Comparative Examples diluted to 1 μM in uptake buffer was added to a concentration of 200 μl/well and cultured at 37° C. for 15 minutes. 100 μl of uptake buffer containing 20-30 nM [3H]-DA was added and cultured at 37° C. for 5 minutes. The reaction solution was quickly removed and washed three times with 1 ml ice-cold uptake buffer. After dissolving the resultant in 1% SDS (0.5 ml), the degree of binding of radioisotope-labeled dopamine to the transporter was measured.
# (§2) In addition, when evaluating the reuptake inhibitory effect on dopamine, norepinephrine, and serotonin, the same method was performed without treating each compound of the Examples or Comparative Examples as a control, the degree of binding of radioisotope-labeled dopamine, norepinephrine, and serotonin to the transporter was measured, and by using this as a standard (100%), the triple reuptake inhibitory effect was evaluated as a relative ratio (Ratio %). That is, in the control group, the binding of dopamine, norepinephrine, and serotonin to transporters is not inhibited, but when each compound of the Examples is treated and thus the binding is inhibited, the Patio % value decreases.
# (§3) Meanwhile, the Patio % values were compared, and in the case of the compounds of Examples 6, 9, 10, 19, 20, 22, 24, 28, 30, 31, 32, 33, 35, 41, 42, 48, 49, 51, 55, 56, 59, 61, 63, 64, 65, 66, 74 and 76 with excellent reuptake inhibitory effects on dopamine, norepinephrine and serotonin, the concentration at which the Ratio % is 50% was calculated using a total of 6 concentrations (1 nM, 5 nM, 10 nM, 50 nM, 100 nM, and 1 μM) and expressed as IC50. In addition, in the case of the compound of Comparative Example 1, IC50 was obtained by the same method as the Example Compounds.
# serotonin transporter = biological target: T2, serotonin transporter (Homo sapiens, UniProt P31645); assay: Serotonin reuptake inhibition in transporter-transfected HEK-293 cells ([3H]-5-HT); settings: for Triple reuptake inhibition (Ratio %) SERT: compound 1 μM, [3H]-5-HT, relative to control without compound (100%), lower = more inhibition; for IC50: concentration at which Ratio % is 50%, 6 concentrations 1 nM to 1 μM, read-out: Triple reuptake inhibition (IC50, μM) SERT
# T2 construct: expressed in transfected cells; host or cells: HEK-293
# T2 sequence (P31645 whole entry): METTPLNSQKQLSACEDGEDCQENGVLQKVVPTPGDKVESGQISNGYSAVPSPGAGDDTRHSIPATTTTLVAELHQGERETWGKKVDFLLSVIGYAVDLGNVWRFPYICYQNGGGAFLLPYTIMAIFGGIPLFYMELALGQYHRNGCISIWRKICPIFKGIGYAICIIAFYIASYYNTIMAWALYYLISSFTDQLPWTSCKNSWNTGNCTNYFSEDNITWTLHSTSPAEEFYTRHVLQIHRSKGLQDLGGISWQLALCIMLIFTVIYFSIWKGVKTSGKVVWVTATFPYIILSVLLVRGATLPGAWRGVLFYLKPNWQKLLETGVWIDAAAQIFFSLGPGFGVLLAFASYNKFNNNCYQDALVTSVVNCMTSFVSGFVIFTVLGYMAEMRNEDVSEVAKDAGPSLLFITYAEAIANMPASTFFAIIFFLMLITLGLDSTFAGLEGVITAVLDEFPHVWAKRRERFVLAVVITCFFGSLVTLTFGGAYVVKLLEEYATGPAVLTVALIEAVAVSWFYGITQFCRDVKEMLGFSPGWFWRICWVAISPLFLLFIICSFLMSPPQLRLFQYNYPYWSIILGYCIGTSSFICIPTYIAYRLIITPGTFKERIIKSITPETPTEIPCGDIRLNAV
# Description: as §1
# (§4) For norepinephrine (NE) and serotonin (5-HT), the degree of binding of radioisotope-labeled norepinephrine or serotonin to the transporter was measured in the same manner as above, except that cells transfected with NE or 5-HT transporter cDNA were used and [3H]-NE or [3H]-5-HT was used as a substrate.
# as §2
# In addition, in the case of the compound of Comparative Example 1, IC50 was obtained by the same method as the Example Compounds.
# [1] = biological target: T3, norepinephrine transporter (Homo sapiens, UniProt P23975); assay: Norepinephrine reuptake inhibition in transporter-transfected HEK-293 cells ([3H]-NE); settings: for Triple reuptake inhibition (Ratio %) NET: compound 1 μM, [3H]-NE, relative to control without compound (100%), lower = more inhibition; for IC50: concentration at which Ratio % is 50%, 6 concentrations 1 nM to 1 μM, read-out: Triple reuptake inhibition (IC50, μM) NET
# T3 construct: expressed in transfected cells; host or cells: HEK-293
# T3 sequence (P23975 whole entry, species assumed): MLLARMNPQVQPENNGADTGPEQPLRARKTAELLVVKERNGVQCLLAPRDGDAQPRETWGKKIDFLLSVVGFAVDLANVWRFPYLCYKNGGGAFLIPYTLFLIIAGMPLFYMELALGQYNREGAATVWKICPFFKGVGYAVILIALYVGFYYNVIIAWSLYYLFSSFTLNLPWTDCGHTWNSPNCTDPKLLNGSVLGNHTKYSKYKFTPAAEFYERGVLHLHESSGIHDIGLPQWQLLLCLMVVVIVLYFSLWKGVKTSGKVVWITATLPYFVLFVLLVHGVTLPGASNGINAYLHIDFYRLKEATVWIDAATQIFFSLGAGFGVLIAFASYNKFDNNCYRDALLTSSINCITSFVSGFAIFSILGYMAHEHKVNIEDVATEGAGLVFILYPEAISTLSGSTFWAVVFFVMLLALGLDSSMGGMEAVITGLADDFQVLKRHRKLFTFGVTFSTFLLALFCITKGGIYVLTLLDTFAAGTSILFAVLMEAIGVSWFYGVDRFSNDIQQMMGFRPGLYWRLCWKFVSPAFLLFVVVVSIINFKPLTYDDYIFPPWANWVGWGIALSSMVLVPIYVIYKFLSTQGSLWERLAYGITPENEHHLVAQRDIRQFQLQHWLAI
# Description: as §1, §4, §2, §3
Triple reuptake inhibition (Ratio %) DAT (dopamine transporter),IC50 (dopamine transporter),Triple reuptake inhibition (Ratio %) SERT (serotonin transporter),IC50 (serotonin transporter),Triple reuptake inhibition (Ratio %) NET [1],IC50 [1],SMILES
94.20%,,88.61%,,105.49%,,"O=C(NCCN1CCN(c2ccc(Cl)c(Cl)c2)CC1)c1ccc(Cl)c(Cl)c1 [Example 14, 3,4-dichloro-N-(2-(4-(3,4-dichlorphenyl)piperazin-1-yl)ethyl)benzamide]"
106.09%,,89.10%,,94.42%,,"O=C(NCCN1CCN(c2cccc(Cl)c2Cl)CC1)c1ccc(Cl)c(Cl)c1 [Example 13, 3,4-dichloro-N-(2-(4-(2,3-dichlorophenyl)piperazin-1-yl)ethyl)benzamide]"
84.74%,,111.92%,,90.99%,,"O=C(NCCN1CCC(C(O)c2ccccc2)CC1)c1cc2ccccc2[nH]1 (centres unmarked) [Example 36, N-(2-(4-(hydroxy(phenyl)methyl)piperidin-1-yl)ethyl)-1H-indol-2-carboxamide]"
70.22%,,87.86%,,95.95%,,"O=C(O)c1ccc2[nH]c(C(=O)NCCN3CCC(Cc4ccccc4)CC3)cc2c1 [Example 81, 2-((2-(4-benzylpiperidin-1-yl)-ethyl)carbamoyl)-1H-indol-5-carboxylic acid]"
57.66%,3.93 µM,73.84%,14 µM,34.16%,,"O=C(NCCN1CCC(Cc2ccc(F)c(F)c2)CC1)c1ccc2cc(Br)ccc2c1 [Example 6, 6-bromo-N-(2-(4-(3,4-difluorobenzyl)piperidin-1-yl)ethyl)-2-naphthamide]"
37.06%,1.48 µM,76.79%,,81.84%,,"O=C(NCCN1CCC(Cc2ccccc2)CC1)c1cc2cccnc2[nH]1 [Example 56, N-(2-(4-benzylpiperidin-1-yl)ethyl)-1H-pyrrolol[2,3-b]pyridin-2-carboxamide]"
75.29%,,63.40%,,82.25%,,"O=C(NCCN1CCN(Cc2ccc(Cl)c(Cl)c2)CC1)c1ccc(Cl)c(Cl)c1 [Example 11, 3,4-dichloro-N-(2-(4-(3,4-dichlorobenzyl)piperazin-1-yl)ethyl)benzamide]"
12.3%,0.171 µM,48.50%,0.525 µM,31.85%,0.371 µM,"N#Cc1ccc2[nH]c(C(=O)NCCN3CCC(Cc4ccccc4)CC3)cc2c1 [Example 41, N-(2-(4-benzylpiperidin-1-yl)ethyl)-5-cyano-1H-indol-2-carboxamide]"
49.44%,0.984 µM,75.29%,,94.09%,7.91 µM,"O=C(NCCN1CCC(Cc2ccccc2)CC1)c1cc2cc(Br)ccc2[nH]1 [Example 30, N-(2-(4-benzylpiperidin-1-yl)ethyl)-5-bromo-1H-indol-2-carboxamide]"
79.43%,,94.51%,,144.33%,,"O=C(N[C@@H]1CC[C@@H](c2ccc(Cl)c(Cl)c2)c2ccccc21)c1cc2ccccc2[nH]1 [Example 62, N-((1R,4S)-4-(3,4-dichlorophenyl)-1,2,3,4-tetrahydronaphthalen-1-yl)-1H-indol-2-carboxamide]"

# The remaining lines, values behind:
SMILES,Triple reuptake inhibition (Ratio %) DAT (dopamine transporter),IC50 (dopamine transporter),Triple reuptake inhibition (Ratio %) SERT (serotonin transporter),IC50 (serotonin transporter),Triple reuptake inhibition (Ratio %) NET [1],IC50 [1]
"O=C(NCCN1CCC(Cc2ccccc2)CC1)c1nc2cc(O)ccc2[nH]1 [Example 64, N-(2-(4-benzylpiperidin-1-yl)ethyl)-5-hydroxy-1H-benzo[d]imidazol-2-carboxamide]",22.84%,0.362 µM,47.72%,0.237 µM,57.21%,0.543 µM
"O=C(NCCN1CCC(Cc2ccccc2)CC1)c1ccc(Cl)c(Cl)c1 [Example 18, N-(2-(4-benzylpiperidin-1-yl)ethyl)-3,4-dichlorobenzamide]",68.93%,,47.45%,,67.88%,
"O=C(NCCN1CCC(Cc2ccccc2)CC1)c1cc2cc(C(F)(F)F)ccc2[nH]1 [Example 40, N-(2-(4-benzylpiperidin-1-yl)ethyl)-5-(trifluoromethyl)-1H-indol-2-carboxamide]",35.13%,,92.65%,,59.50%,
"O=C(NCCN1CCC(Cc2ccc(Cl)c(Cl)c2)CC1)c1ccc(Cl)c(Cl)c1 [Example 17, 3,4-dichloro-N-(2-(4-(3,4-dichlorobenzyl)piperidin-1-yl)ethyl)benzamide]",66.05%,,4.81%,,88.67%,
"O=C(NCCN1CCN(c2cccc(C(F)(F)F)c2)CC1)c1cc2ccccc2[nH]1 [Example 21, N-(2-(4-(3-(trifluoromethyl)phenyl)piperazin-1-yl)ethyl)-1H-indol-2-carboxamide]",94.30%,,86.98%,,97.95%,
"O=C(NCCN1CCC(Cc2ccccc2)CC1)[C@H]1Cc2ccccc2N1 [Example 58, (R)—N-(2-(4-benzylpiperidin-1-yl)ethyl)indolin-2-carboxamide]",66.26%,,105.84%,,82.39%,
O=C(NCCN1CCC(Cc2ccccc2)CC1)c1cc2cc(F)ccc2[nH]1 [Example 49],24.67%,0.138 µM,62.50%,1.47 µM,26.73%,0.561 µM
"O=C(NCCN1CCN(CC2CCOCC2)CC1)c1cc2ccccc2[nH]1 [Example 29, N-(2-(4-((tetrahydro-2H-pyran-4-yl)methyl)piperazin-1-yl)ethyl)-1H-indol-2-carboxamide]",113.83%,,94.24%,,97.94%,
"O=C(NCCn1ccc(-c2ccc(F)cn2)n1)c1cc2ccccc2[nH]1 [Example 52, N-(2-(3-(5-fluoropyridin-2-yl)-1H-pyrazol-1-yl)ethyl)-1H-indol-2-carboxamide]",85.39%,,93.19%,,82.74%,
"O=C(NCCN1CCC(Cc2ccccc2)CC1)c1nc2ccccc2s1 [Example 55, N-(2-(4-benzylpiperidin-1-yl)ethyl)benzo[d]thiazol-2-carboxamide]",39.32%,2.64 µM,53.01%,3.01 µM,57.47%,2.48 µM
O=C(NCCN1CCN(c2cccc(C(F)(F)F)c2)CC1)c1ccc2cc(Br)ccc2c1 [Example 2],107.77%,,78.42%,,120.40%,
"CC1(C(=O)NCCN2CCC(Cc3ccccc3)CC2)CC1 [Example 70, N-(2-(4-benzylpiperidine-1-yl)ethyl)-1-methylcyclopropanecarboxamide]",107.49%,,102.65%,,116.85%,
